Columns and labels:
Assay in all cases: antibacterial activity by mycelial growth rate method
Format in all cases: cell-based
B. cinerea = settings: Botrytis cinerea; for inhibition at 25 µg/mL: 25 mg/L; for inhibition at 50 µg/mL: 50 mg/L; for inhibition at 100 µg/mL: 100 mg/L
Procedure: (§1) Five common strains of C. gloeosporioides, V. mali, F. oxysporum, B. cinerea and G. graminis were selected, and the antibacterial activity of the compounds was tested by a mycelial growth rate method (Ann. Appl. Biol., 2008, 152, 369). The above strains for test were provided by Shangdong Biopesticide Engineering Research Center. Firstly, a certain amount of potato dextrose agar (PDA) was weighed and placed in a wide neck flask, distilled water was added to the wide-necked flask, to prepare a culture medium, and the culture medium was placed in an autoclave for sterilization at 120° C. for half an hour. 1 mg of drugs to be tested were weighed and dissolved in 10 mL of acetone to prepare 100 mg/L of agents, a half of agents therein were taken and diluted with the acetone to 10 mL to prepare 50 mg/L of agents, and 25 mg/L, 12.5 mg/L and 6.25 mg/L of agents might be prepared in such way. 5 mL of agents therein were taken and poured into 50 mL of potato dextrose agar for uniform mixing, and then the mixtures were poured into 5 culture media sterilized at high temperature respectively. The five pathogens were inoculated with inoculation loops respectively after cooling, sealed with sealing films and transferred to a proper temperature for observation. When colonies in the control group without the agents reached […], the colonies in the experimental groups were measured by a cross intersection method according to the following formula: Inhibition rate=(colony diameter of the control group−colony diameter of the experimental groups)/colony diameter of the control group×[…]

C. gloeosporioides = settings: Colletotrichum gloeosporioides; for inhibition at 25 µg/mL: 25 mg/L; for inhibition at 50 µg/mL: 50 mg/L; for inhibition at 100 µg/mL: 100 mg/L
Procedure: as §1

F. oxysporum = settings: Fusarium oxysporum; for inhibition at 25 µg/mL: 25 mg/L; for inhibition at 50 µg/mL: 50 mg/L; for inhibition at 100 µg/mL: 100 mg/L
Procedure: as §1

G. graminis = settings: Gaeumannomyces graminis; for inhibition at 25 µg/mL: 25 mg/L; for inhibition at 50 µg/mL: 50 mg/L; for inhibition at 100 µg/mL: 100 mg/L
Procedure: as §1

V. mali = settings: Cytospora mali; for inhibition at 25 µg/mL: 25 mg/L; for inhibition at 50 µg/mL: 50 mg/L; for inhibition at 100 µg/mL: 100 mg/L
Procedure: as §1

Structure (SMILES) | inhibition at 25 µg/mL (B. cinerea) | inhibition at 50 µg/mL (B. cinerea) | inhibition at 100 µg/mL (B. cinerea) | inhibition at 25 µg/mL (C. gloeosporioides) | inhibition at 50 µg/mL (C. gloeosporioides) | inhibition at 100 µg/mL (C. gloeosporioides) | inhibition at 25 µg/mL (F. oxysporum) | inhibition at 50 µg/mL (F. oxysporum) | inhibition at 100 µg/mL (F. oxysporum) | inhibition at 25 µg/mL (G. graminis) | inhibition at 50 µg/mL (G. graminis) | inhibition at 100 µg/mL (G. graminis) | inhibition at 25 µg/mL (V. mali) | inhibition at 50 µg/mL (V. mali) | inhibition at 100 µg/mL (V. mali)
c1ccc(CN2Cc3cc4ccccc4nc3CC3CCCN3c3ccccc32)cc1 (stereo not drawn) [Compound 1] | ≤ 100% | 100% | 100% | 100% | 100% | 100% | 49.3% | 100% | 100% | 36.9% | 54.1% | 68.9% | ≤ 100% | 100% | 100%
Cc1ccc(CN2Cc3cc4cc(C(F)(F)F)ccc4nc3CC3CCCN3c3ccccc32)cc1 (stereo not drawn) [Compound 6] | ≤ 100% | 100% | 100% | 74.6% | 82.1% | 100% | 86.5% | 100% | 100% | 56.3% | 100% | 100% | ≤ 100% | 100% | 100%
Cc1ccc(CN2Cc3cc4ccccc4nc3CC3CCCN3c3cc(Cl)ccc32)cc1 (stereo not drawn) [Compound 5] | ≤ 100% | 100% | 100% | 88.1% | 100% | 100% | 100% | 100% | 100% | 35.9% | 51.9% | 75.1% | ≤ 100% | 100% | 100%
Cc1ccc(CN2Cc3cc4ccccc4nc3CC3CCCN3c3ccccc32)cc1 (stereo not drawn) [Compound 3] | ≤ 100% | 100% | 100% | 100% | 100% | 100% | 100% | 100% | 100% | 58.2% | 62.1% | 100% | ≤ 100% | 100% | 100%
Fc1ccc(CN2Cc3cc4ccccc4nc3CC3CCCN3c3ccccc32)cc1 (stereo not drawn) [Compound 2] | ≤ 100% | 100% | 100% | 92.4% | 100% | 100% | 100% | 100% | 100% | 100% | 100% | 100% | ≤ 100% | 100% | 100%
COc1cccc(CN2Cc3cc4ccccc4nc3CC3CCCN3c3ccccc32)c1 (stereo not drawn) [Compound 4] | ≤ 100% | 100% | 100% | 100% | 100% | 100% | 100% | 100% | 100% | 61.2% | 66.5% | 100% | ≤ 100% | 100% | 100%

Reference: patent US11839216B1, “Quinoline-2,3-fused nine-membered ring scaffold compound, and preparation method and application thereof as effective component in plant fungicide” (QINGDAO AGRICULTURAL UNIVERSITY, priority 2022, dated 2023)
